Results taken from patent publication US10022365B2 (Jiangsu Hengrui Medicine Co., Ltd., priority 2009, dated 2018).
Where a name gives a salt, the structure may show the parent alone.

System: Ls-174t human colon cancer
Experiment: Antitumor therapeutic efficacy test in vivo
Parameters: species or system BALB/cA-nude mice
Method: [Antitumor Therapeutic Efficacy Test In Vivo]
Preparation methods: The drug was diluted with saline solution to required concentration.
Experimental animals: BALB/cA-nude mice, 6-7 weeks, ♀, purchased from Shanghai Slac Laboratory Animal Co., LTD. […] Environment: SPF level.
After tumors grew to the 150-300 mm^3, mice were randomly divided into teams (d0). The volume of tumors and the weight of the mice were measured and recorded for 2-3 times per week. The tumor volume (V) was calculated by the follow equation: V=½×a×b^2 wherein a, b represent length and width respectively.

CCc1c2c(nc3ccc(OC(=O)N4CCC(N5CCCCC5)CC4)cc13)-c1cc3c(c(=O)n1C2)COC(=O)[C@]3(O)CC [CPT-11, Irinotecan hydrochloride]
growth of Ls-174t human colon cancer in nude mice: inhibited the growth of Ls-174t human colon cancer in nude mice significantly
% T/C D12 (10 mg/kg, IV, D0, 3): 45%
Tumor inhibition rate (%) D12 (10 mg/kg, IV, D0, 3): 55%
Partial regression (10 mg/kg, IV, D0, 3, number of animals): 0
